# Assay results from PubChem BioAssay (NCI).
#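 Five compound concentrations were applied to cells in 96-well plates for 48 hours; endpoints were derived by simple linear interpolation of the resulting dose-response curve. TGI: concentration producing complete growth inhibition.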 Where a SMILES comes first, the peptide text is derived from it. The star is where a group is joined. Fmoc = O=C(OCC1c2ccccc2-c2ccccc21)*; OtBu = CC(C)(C)O*
# What was measured:
# Experiment in all cases: DTP human tumour cell line panel, 48 h
# ACHN renal = tested on: ACHN renal
# CCRF-CEM leukemia = tested on: CCRF-CEM leukemia
# COLO 205 colon = tested on: COLO 205 colon
# EKVX NSCLC = tested on: EKVX NSCLC
# HL-60(TB) leukemia = tested on: HL-60(TB) leukemia
# HOP-62 NSCLC = tested on: HOP-62 NSCLC
# HS 578T breast = tested on: HS 578T breast
# MDA-MB-231 breast = tested on: MDA-MB-231 breast
# NCI-H23 lung = tested on: NCI-H23 lung
# NCI-H460 lung = tested on: NCI-H460 lung
# NCI-H522 lung = tested on: NCI-H522 lung
# OVCAR-3 ovarian = tested on: OVCAR-3 ovarian
# SK-MEL-5 melanoma = tested on: SK-MEL-5 melanoma
# T-47D breast = tested on: T-47D breast
# TK-10 renal = tested on: TK-10 renal
# U251 CNS = tested on: U251 CNS
# UACC-62 melanoma = tested on: UACC-62 melanoma
Structure (SMILES),TGI (ACHN renal) [µM],TGI (CCRF-CEM leukemia) [µM],TGI (COLO 205 colon) [µM],TGI (EKVX NSCLC) [µM],TGI (HL-60(TB) leukemia) [µM],TGI (HOP-62 NSCLC) [µM],TGI (HS 578T breast) [µM],TGI (MDA-MB-231 breast) [µM],TGI (NCI-H23 lung) [µM],TGI (NCI-H460 lung) [µM],TGI (NCI-H522 lung) [µM],TGI (OVCAR-3 ovarian) [µM],TGI (SK-MEL-5 melanoma) [µM],TGI (T-47D breast) [µM],TGI (TK-10 renal) [µM],TGI (U251 CNS) [µM],TGI (UACC-62 melanoma) [µM]
CC1=C(C(=O)OC2CC3CCC2(C)C3(C)C)C2Nc3ccccc3N(C)C2O1 (configuration not stated),11.2,7.07,2.4,21.1,4.97,16.6,16.3,16.9,6.59,3.7,4.02,11.9,3.53,11.8,17.4,16.6,4.29
O=c1nc2n3c4c(cccc4nc-2c(=O)[nH]1)CCC3,> 100,> 100,> 100,> 100,> 100,> 100,> 100,> 100,> 100,> 100,71.4,> 100,> 100,> 100,> 100,> 100,> 100
Cc1cc(NC2=CC(=O)C(=O)c3ccccc32)no1,25.8,40.9,31.6,31.5,> 29.6,32.5,40.9,> 67.2,39.8,23.3,34.5,14.1,6.57,32.7,63.4,13.4,9.27
CCOC1CN=C(Nc2cccc3ccccc23)S1 (configuration not stated),> 10,> 10,> 10,> 10,> 10,> 10,> 10,> 10,> 10,> 10,> 10,> 10,> 10,> 10,> 10,> 10,> 10
CNC(=O)C(C)NC(=O)C(Cc1ccccc1)NC(=O)c1ccccc1 (configuration not stated),> 100,> 100,> 100,> 100,> 100,> 100,> 100,> 100,> 100,> 100,> 100,> 100,> 100,> 100,> 100,> 100,> 100
CC(C)C(NC(=O)OCC1c2ccccc2-c2ccccc21)C(=O)NC(CCC(=O)OC(C)(C)C)C(=O)OC(C)(C)C (configuration not stated) (Fmoc-Val-Glu(OtBu)-OtBu; configuration not given here),> 100,> 100,> 31.6,> 100,> 100,> 100,> 100,> 100,> 100,> 100,> 100,> 100,> 100,> 72.7,> 100,> 100,> 100
